These results are taken from patent EP2338492A1, “Methods and compositions for the treatment of alzheimer” (Universidad del Pais Vasco, priority 2009, dated 2011).

For one assay, the system named is NMDA receptor. It counts as cell-based, Sprague-Dawley rat.
The subject of a further assay is AMPA receptors. The experiment in a line: Whole-cell patch-clamp recording of Aβ-induced currents with Mg2+, no glycine, with or without cyclothiazide. It counts as cell-based, Sprague-Dawley rat. To be noted: Aβ 1 µM + CTZ 100 µM; CNQX 30 µM; n=6. The text has this:
(§1) Primary neuron cultures were obtained from the cortical lobes of E18 Sprague-Dawley rat embryos according to previously described procedures (Gottlieb M. et al. 2006. Neurobiol. Dis. 23 374-386.) Cells were resuspended in B27 Neurobasal medium plus 10% FBS (Sigma; St Louis, MO, USA) and then seeded onto poly-1-ornithine-coated glass coverslips at 1x10^5 cells per coverslip (12 mm in diameter) and 48-well plates at 1.5 x 10^5 per well. One day later, the medium was replaced by serum-free-, B27-supplemented Neurobasal medium. The cultures were essentially free of astrocytes and microglia; they were maintained at 37°C and 5% CO2. Cultures were used 8-10 days after plating.
Whole-cell recordings were performed at room temperature using the EPC-7 patch-clamp amplifier (HEKA Elektronik, Lambrecht, Germany). Currents were recorded at a holding membrane potential of -70 mV. Extracellular bath solution with a pH of 7.3 contained the following (in mM): 140 NaCl, 5 KCl, 2.5 CaCl2, 1 MgCl2, 10 HEPES and 10 mM glucose. Patch-clamp pipettes (3-5 MΩ) were filled with internal solution at a pH of 7.3 containing the following (in mM): 140 K-gluconate, 1 CaCl2, 2 MgCl2, 10 HEPES, 10 EGTA, 2 Mg-ATP, 0.2 Na-GTP.
We then measured the effects of antagonists of NMDA or AMPA receptor on [Ca^2+]¡ in neurons exposed to Aβ plus CTZ (5 µM and 100 µM, respectively; Fig 2B).
In general terms: In patch-clamp work, channel activity is measured electrically.

The test system of assay [1] is cultured cortical neurons. Briefly: Ca2+ imaging in the cytosol (fura-2 AM). The assay is classed as cell-based, Sprague-Dawley rat. The note with it: for effect on Aβ-induced increase in [Ca2+]i: Aβ 5 µM, coapplication, NMDA antagonists n=70, voltage-gated Ca2+ channel inhibitors n=66.
Text: as §1
[Ca^2+]¡ was determined according to the method described previously (G. Grynkiewicz, et al. 1985. J. Biol. Chem. 260:3440-3450). Neurons were loaded with fura-2 AM (5 µM; Molecular Probes, Invitrogen, Barcelona, Spain) in culture medium for 30 min at 37°C. Cells were washed in HBSS containing 20 mM HEPES, pH 7.4, 10 mM glucose, and 2 mM CaCl2 (incubation buffer) for 10 min at room temperature. Experiments were performed in a coverslip chamber continuously perfused with incubation buffer at 4 ml/min. The perfusion chamber was mounted on the stage of a inverted epifluorescence microscope (Zeiss Axiovert 35; Oberkochen, Germany) equipped with a 150 W xenon lamp Polychrome IV (T.I.L.L. Photonics, Martinsried, Germany) and a Plan Neofluar 40 x oil immersion objective (Zeiss). Cells were visualized with a high-resolution digital black/white CCD camera (ORCA C4742-80-12 AG; Hamamatsu Photonics Iberica). […] At the end of the assay, in situ calibration was performed with the successive addition of […] and 2 M Tris/50 mM EGTA, pH 8.5. Data were analyzed with Excel (Microsoft, Seattle, WA, USA) and Prism (GraphPad Software, San Diego, CA, USA) software.

The subject of assay [2] is Cortical neurons. The experiment in a line: Cell viability and toxicity assay (LDH release). It counts as cell-based, Sprague-Dawley rat.
Text: as §1
Antagonists and inhibitors were added to the cultures 30 min before the Aβ. Twenty four hours after drug application, cellular damage was estimated by measuring the level of lactate dehydrogenase released (LDH; Cytotox 96®, Promega, Madison, WI) from damaged cells into the culture media. Data were normalized to the activity of LDH released from vehicle-treated cells (100%) and calculated as a percentage of the control. Results were expressed as the means ± SEM of at least three independent experiments performed in triplicates.
(LDH in the medium is a marker of cell lysis.)

Assay [3] has as its system Cortical neurons. The experiment in a line: Measurement of intracellular reactive oxygen species (CM-H2DCFDA). To be noted: 2 hours. The assay is classed as cell-based, Sprague-Dawley rat.
Text: as §1
Neurons were exposed to Aβ oligomers alone or with GluR antagonists as described. Cells were loaded with CM-H2DCFDA at 30 µM to assay the ROS levels. Calcein-AM (1 µM; Molecular Probes, Invitrogen, Barcelona, Spain) was used to quantify the number of cells within the reading field. Fluorescence was measured using a Synergy-HT fluorimeter (Bio-Tek Instruments Incl, Beverly, MA, USA; excitation at 485 nm, emission at 527 nm). All experiments (n≥3) were performed at least in quadruplicate and plotted as means ± SEM.

Assay [4] concerns Cortical neurons. The experiment in a line: Analysis of mitochondrial membrane potential (JC-1). It counts as cell-based, Sprague-Dawley rat. To be noted: Aβ 5 µM, 2 hours, in conjunction with GluR antagonist.
Text: as §1
Briefly, after drug treatment, cells were loaded with 3 µM JC-1 for 15 min at 37°C and were washed with HBSS without phenol red by two times to eliminate the excess of dye. In the cytosol the monomeric form of this dye fluoresces green (excitation at 485 nm, emission at 527 nm), whereas within the mitochondrial matrix highly concentrated JC-1 forms aggregates that fluoresce red (excitation at 485 nm, emission at 590 nm). Both JC-1 monomers and aggregates were detectable using a Synergy-HT fluorimeter (Bio-Tek Instruments Incl, Beverly, MA, USA) and the changes in mitochondrial potential were calculated as the red/green ratio in each condition. All experiments (n≥3) were performed at least in triplicate and plotted as meant SEM.

The test system of assay [5] is neurons from CA1 in organotypic slices. The experiment in a line: Measurement of Ca2+ in organotypic slices (fluo-4). The assay is classed as cell-based. To be noted: for [Ca2+]i in CA1 neurons of organotypic slices: kainate 1 mM (positive control). From the text: (§2) Brain was removed and two hemispheres were separated in HBSS. Thalamus and midbrain was removed and each hemisphere sliced with a tissue chopper (McIlwan Tissue Chopper, Campden Instruments Ltd, Lafayette, IN, USA) in order to obtain coronal slices of 400 µm of thickness. Entorhinal cortex, in connection with hippocampus, were isolated under a dissection microscope, 2 slices plated on each Millicell CM culture inserts (Millipore Ibérica, Madrid, Spain) and maintained in Neurobasal medium supplemented with 0.5% B27, 25% horse serum, 25% HBSS and […] gentamycin at 37°C. Experiments were performed at 7-10 days in vitro.
Ca^2+ levels in hippocampus were monitored by fluorescence microscopy using the Ca^2+ indicator fluo-4 (Molecular Probes, Invitrogen, Barcelona, Spain). Slices were incubated with fluo-4-AM (5 µM and 0.01 % of pluronic acid) for 45 min at 37 °C. Experiments were performed in a chamber continuously perfused with incubation buffer. Drugs were perfused by a micromanifold with a quartz/polyimide tube of 200 µm ID, attached to a micromanipulator in order to perfuse the drugs directly to the cells. The perfusion chamber was mounted on the stage of a Leica DMLFSA up-right microscope equipped with a 150 W xenon lamp Polychrome V (T.I.L.L. Photonics, Martinsried, Germany) and a HCX Apo 40 x water immersion objective (Leica). Cells were visualized with a CCD camera (EM CCD 9100; Hamamatsu Photonics Iberica, Barcelona, Spain).

For assay [6], the system named is entorhinal cortex-hippocampus organotypic cultures. The experiment in a line: Cell death in organotypic cultures by propidium iodide uptake. The note with it: Aβ oligomers 100 nM, 4 days, co-incubation with MK801 10 µM or CNQX 30 µM. The assay is classed as cell-based.
Text: as §2
Antagonists were added to cultures 30 min before the Aβ. Cell death in organotypic cultures was evaluated by cellular uptake of propidium iodide (PI). Slices were stained by adding 10 µM PI into the culture for 2 h at 37°C and washed with PBS by two times for 10 min. Slices were fixed with 4% PFA in PBS for 40 min at room temperature. Afterwards, the slices were excited with 510―560 nm light and the emitted fluorescence acquired at 610 nm using a rhodamine filter on an inverted fluorescence microscope (Cell Observer Z1, Zeiss). PI fluorescence images were captured with a Plan NeoFluar 2.5 x objective (Zeiss), using an EM CCD camera (Hamamatsu, C9100-13), controlled by Axio Vision program (Zeiss). Images were analyzed with the ImageJ analysis program (NIH, MD, USA) and neuronal cell death was expressed as the percentage of the mean gray value of each treatment vs. control.

Another assay deals with neurons. Briefly: Measurement of mitochondrial Ca2+ (Rhod-2 AM). The assay is classed as cell-based, Sprague-Dawley rat. The note with it: for effect on Aβ-induced [Ca2+]mit rise: Aβ 5 µM together with NMDA receptor antagonist.
Text: as §1
Rhod-2 AM (Molecular Probes, Invitrogen, Barcelona, Spain) was used to measure mitochondrial Ca^2+ according to the previous procedure with modifications (G. Hajnóczky, L.D. et al. 1995. Cell 82 415-424) Rhod2-AM has a net positive charge, which facilitates its sequestration into mitochondria due to membrane potential-driven uptake. Cells were loaded with 2 µM rhod2-AM for 6 hours. The residual cytosolic fraction of the dye was eliminated when the cells were kept in culture for an additional 18h after loading, whereas the mitochondrial dye fluorescence was maintained. Fluorescence images of rhod-2 were acquired using 550 nm excitation and 590 nm emission. The fluorescence of rhod-2 was not calibrated in terms of [Ca^2+]mit since it is not a ratiometric dye.

Where [7] appears, read: Aβ 5 µM, in conjunction with GluR antagonist.
Where [8] appears, read: Aβ 5 µM, 24 h, AP5 100 µM, MK801 50 µM, memantine 50 µM, CNQX 30 µM, ZVAD-F 50 µM, DEVD 100 µM, DPQ 30 µM, added 30 min before Aβ.

Where two headings read alike, the source gives them in different places.

On to “6-Cyano-7-nitroquinoxaline-2,3-dione [CNQX]”, for which the “Aβ-produced inward current, Aβ + CNQX vs 100 % Aβ alone” value in the assay with NMDA receptor was 98.3 ± 6.8%. Further, the “effect on current activated by Aβ with CTZ” value in the assay on AMPA receptors is listed as “blocked”. In assay [1], the “[Ca2+]i increase, % of control” value was 50 ± 4 % of control. In the assay on Cortical neurons [2], the “effect on Aβ toxicity (Aβ-induced cell death)” value (“effect on Aβ toxicity” below) is listed as “greatly attenuated”. Moreover, the “ROS levels with respect to control (100%, non-treated cells)” value (“ROS levels … (100%, non-treated cells)” below) in the assay with Cortical neurons [3] (setting [7]) is recorded as 106 ± 6.3%. For the same compound, in the assay with Cortical neurons [4], the “mitochondrial potential with respect to control (100%, non-treated cells)” value is 86 ± 3%. Moreover, in [5] (Aβ 20 µM in the pipette, MK801 50 µM (n=9), CNQX 30 µM (n=43), both (n=50)), the “effect on Aβ-induced [Ca2+]i response in organotypic slices” value is on record as “greatly reduced”. The “PI uptake, fold as compared to control slices treated with antagonist alone” value in assay [6] (entorhinal cortex) is reported as 0.73 ± .01 fold; in assay [6] (hippocampus), 1.3 ± 0.4 fold.
As to `N[C@H](CCCP(=O)(O)O)C(=O)O` [AP5, D-(-)-2-Amino-5-phosphonopentanoic acid], the “effect on Aβ oligomer-induced inward current” value in the assay on NMDA receptor is reported as “reduced the peak of the currents”. Moreover, the “[Ca2+]i increase, % of control” value in assay [1] (Aβ 5 µM plus CTZ 100 µM, CNQX 30 µM (n=17), AP5 100 µM (n=17), both (n=18)) is on record as 45 ± 2 % of control. Besides, the “effect on Aβ-induced increase in [Ca2+]i” value in assay [1] was “nearly abolished”. Further, the “effect on Aβ toxicity” value in the assay on Cortical neurons [2] (setting [8]) is “greatly attenuated”. Besides, the “effect on Aβ-induced [Ca2+]mit rise” value in the assay on neurons is recorded as “reduced”. The “ROS levels … (100%, non-treated cells)” value in the assay on Cortical neurons [3] (setting [7]) stood at 102 ± 11%. For the same compound, the “mitochondrial potential with respect to control (100%, non-treated cells)” value in the assay on Cortical neurons [4] was 90 ± 2%.
On to `O=C1NCCc2c(OCCCCN3CCCCC3)cccc21` [DPQ], for which, in the assay on Cortical neurons [2] (setting [8]), the “effect on Aβ toxicity” value is given as “reduced”.
`N#CC(C#N)=NNc1ccc(OC(F)(F)F)cc1` [FCCP]: in the assay on neurons (FCCP 25 µM, internal control), the “rhod-2 fluorescence (mitochondrial Ca2+)” value was “rapid and transitory reduction of rhod-2 fluorescence”.
For the compound `C=C(C)[C@H]1CN[C@H](C(=O)O)[C@H]1CC(=O)O` [Kainate], in assay [5] (Aβ 20 µM in the pipette), the “[Ca2+]i in CA1 neurons of organotypic slices” value is recorded as “increases”.
For the compound `C[C@]12N[C@H](Cc3ccccc31)c1ccccc12` [MK801], in [1], the “effect on Aβ-induced increase in [Ca2+]i” value is “nearly abolished”. Besides, in the assay on Cortical neurons [2], the “effect on Aβ toxicity” value was “greatly attenuated”. Further, the “effect on Aβ-induced [Ca2+]mit rise” value in the assay on neurons is listed as “reduced”. Also, the “ROS levels … (100%, non-treated cells)” value in the assay on Cortical neurons [3] (setting [7]) is 104 ± 3.4%. Further, in the assay on Cortical neurons [4], the “mitochondrial potential with respect to control (100%, non-treated cells)” value amounted to 85 ± 3%. The “effect on Aβ-induced [Ca2+]i response in organotypic slices” value in assay [5] was “greatly reduced”. Further, the “PI uptake, fold as compared to control slices treated with antagonist alone” value is recorded as 1.2 ± 0.4 fold in assay [6] (entorhinal cortex) and 0.9 ± 0.2 fold in [6] (hippocampus).
As to “Aβ oligomers: soluble Aβ1-42 oligomers prepared from Aβ1-42 (ABX) in Hams F-12 at 4°C for 24 h”, the “[Ca2+]mit levels with respect to the control assay (incubation buffer)” value with neurons (Aβ 5 µM) was “increased”. In addition, in the assay with Cortical neurons [3] (Aβ 5 µM alone), the “ROS levels … (100%, non-treated cells)” value is reported as 124 ± 7.8%. Further, the “[Ca2+]i in CA1 neurons of organotypic slices” value in assay [5] (Aβ 20 µM in the pipette) was “increased”.
